Reference: patent US20240124417A1, “COMPOUNDS USEFUL AS IMMUNOMODULATORS” (Bristol-Myers Squibb Company, priority 2019, published 2024)

Molecular target: T1, PD-1/PD-L1 (Homo sapiens, UniProt Q9NZQ7)
T1 construct: TVMV protease site linker (C); made in house; host or cells: HEK293T cells
Assay: PD-1/PD-L1 Homogenous Time-Resolved Fluorescence (HTRF) binding assay
Conditions: PD-L1-His 10 nM, PD-1-Ig 20 nM
Outline: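 Time-resolved FRET read-out using Eu-cryptate anti-Ig (1 nM final) and APC anti-His (20 nM final). Tagged extracellular domains were used in BSA/Tween-20-supplemented dPBS, with compound pre-incubated 15 min with PD-L1-His (10 nM) before PD-1-Ig (20 nM) was added for 15 min. Other human pairs: PD-L2-His 5 nM with PD-1-Ig 20 nM; PD-L1-Ig 10 nM with CD80-His 100 nM.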

T1 sequence (Q9NZQ7 18-239): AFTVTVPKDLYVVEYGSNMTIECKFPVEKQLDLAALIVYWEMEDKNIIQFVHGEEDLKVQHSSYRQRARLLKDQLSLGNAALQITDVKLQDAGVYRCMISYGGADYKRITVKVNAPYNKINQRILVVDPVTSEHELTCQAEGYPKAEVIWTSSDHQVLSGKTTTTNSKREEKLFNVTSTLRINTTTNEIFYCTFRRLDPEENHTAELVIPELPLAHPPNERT

IC50 [nM] | Structure (SMILES)
2.5 | Cc1c(COc2cc(OCc3cncc(C#N)c3)c(CNCc3cncs3)cc2Cl)cccc1-c1cccc(OCC2CCCN(C)C2)c1Cl (centres unmarked) [Example 2576, 5-((4-chloro-5-((2′-chloro-2-methyl-3′-((1-methylpiperidin-3-yl)methoxy)-[1,1′-biphenyl]-3-yl)methoxy)-2-(((thiazol-5-ylmethyl)amino)methyl)phenoxy)methyl)nicotinonitrile]
2.6 | Cc1c(COc2cc(OCc3cncc(C#N)c3)c(CNCc3cc[nH]n3)cc2Cl)cccc1-c1cccc(OCCCN2CCC(O)(CO)CC2)c1Cl [Example 2012, 5-((2-((((1H-pyrazol-3-yl)methyl)amino)methyl)-4-chloro-5-((2′-chloro-3′-(3-(4-hydroxy-4-(hydroxymethyl)piperidin-1-yl)propoxy)-2-methyl-[1,1′-biphenyl]-3-yl)methoxy)phenoxy)methyl)nicotinonitrile]
3 | CC(=O)NC1CCN(CCCOc2cccc(-c3cccc(COc4cc(OCc5cncc(C#N)c5)c(CN5CCCCC5c5cnn(C)c5)cc4Cl)c3C)c2C)CC1 (centres unmarked) [Example 1054, N-(1-(3-((3′-((2-Chloro-5-((5-cyanopyridin-3-yl)methoxy)-4-((2-(1-methyl-1H-pyrazol-4-yl)piperidin-1-yl)methyl)phenoxy)methyl)-2,2′-dimethyl-[1,1′-biphenyl]-3-yl)oxy)-propyl)piperidin-4-yl)acetamide]
48.6 | Cc1c(COc2cc(OCc3cncc(C#N)c3)c(CNCc3ncc(-c4ccccc4)o3)cc2Cl)cccc1-c1cccc(OCCCN2CC[C@@H](O)C2)c1C [Example 2566, (R)-5-((4-chloro-5-((3′-(3-(3-hydroxypyrrolidin-1-yl)propoxy)-2,2′-dimethyl-[1,1′-biphenyl]-3-yl)methoxy)-2-((((5-phenyloxazol-2-yl)methyl)amino)methyl)phenoxy)methyl)nicotinonitrile]
2.3 | Cc1c(COc2cc(OCc3cncc(C#N)c3)c(CN3CCc4[nH]cnc4C3)cc2Cl)cccc1-c1cccc(OCC2CCCN(C)C2)c1Cl (centres unmarked) [Example 2583, 5-((4-chloro-5-((2′-chloro-2-methyl-3′-((1-methylpiperidin-3-yl)methoxy)-[1,1′-biphenyl]-3-yl)methoxy)-2-((1,4,6,7-tetrahydro-5H-imidazo[4,5-c]pyridin-5-yl)methyl)phenoxy)methyl)nicotinonitrile]
0.4 | Cc1c(COc2cc(OCc3cncc(C#N)c3)c(CNCCc3cscn3)cc2Cl)cccc1-c1cccc(OCCCN2CC[C@@H](O)C2)c1C [Example 2506, (R)-5-((4-chloro-5-((3′-(3-(3-hydroxypyrrolidin-1-yl)propoxy)-2,2′-dimethyl-[1,1′-biphenyl]-3-yl)methoxy)-2-(((2-(thiazol-4-yl)ethyl)amino)methyl)phenoxy)methyl)nicotinonitrile]
4.5 | Cc1c(COc2cc(OCc3cncc(C#N)c3)c(CNCCc3nc4cc(Cl)ccc4[nH]3)cc2Cl)cccc1-c1cccc(OCCCN2CC[C@@H](O)C2)c1C [Example 2516, (R)-5-((4-chloro-2-(((2-(5-chloro-1H-benzo[d]imidazol-2-yl)ethyl)amino)methyl)-5-((3′-(3-(3-hydroxypyrrolidin-1-yl)propoxy)-2,2′-dimethyl-[1,1′-biphenyl]-3-yl)methoxy)phenoxy)methyl)nicotinonitrile]
0.8 | Cc1c(COc2cc(OCc3cncc(C#N)c3)c(CNCc3ccnn3C)cc2Cl)cccc1-c1cccc(OCCCN2CC[C@@H](O)C2)c1C [Example 2556, (R)-5-((4-chloro-5-((3′-(3-(3-hydroxypyrrolidin-1-yl)propoxy)-2,2′-dimethyl-[1,1′-biphenyl]-3-yl)methoxy)-2-((((1-methyl-1H-pyrazol-5-yl)methyl)amino)methyl)phenoxy)methyl)nicotinonitrile]
